Patent US20250057993A1, “LABELED INHIBITORS OF PROSTATE SPECIFIC MEMBRANE ANTIGEN (PSMA), THEIR USE AS IMAGING AGENTS AND PHARMACEUTICAL AGENTS FOR THE TREATMENT OF PSMA-EXPRESSING CANCERS” (Universität Heidelberg, priority 2018, published 2025)
Where two headings read alike, the source gives them in different places.

What was measured:
PSMA [1] = molecular target: T1, PSMA (Homo sapiens, UniProt Q04609); experiment: Competitive binding assay (Ki) on PSMA-positive C4-2 cells; parameters: host or cells: C4-2 cells; conditions: non-labeled ligands vs 0.75 nM 68Ga-PSMA-HBED-CC dimer
T1 sequence (Q04609 whole entry): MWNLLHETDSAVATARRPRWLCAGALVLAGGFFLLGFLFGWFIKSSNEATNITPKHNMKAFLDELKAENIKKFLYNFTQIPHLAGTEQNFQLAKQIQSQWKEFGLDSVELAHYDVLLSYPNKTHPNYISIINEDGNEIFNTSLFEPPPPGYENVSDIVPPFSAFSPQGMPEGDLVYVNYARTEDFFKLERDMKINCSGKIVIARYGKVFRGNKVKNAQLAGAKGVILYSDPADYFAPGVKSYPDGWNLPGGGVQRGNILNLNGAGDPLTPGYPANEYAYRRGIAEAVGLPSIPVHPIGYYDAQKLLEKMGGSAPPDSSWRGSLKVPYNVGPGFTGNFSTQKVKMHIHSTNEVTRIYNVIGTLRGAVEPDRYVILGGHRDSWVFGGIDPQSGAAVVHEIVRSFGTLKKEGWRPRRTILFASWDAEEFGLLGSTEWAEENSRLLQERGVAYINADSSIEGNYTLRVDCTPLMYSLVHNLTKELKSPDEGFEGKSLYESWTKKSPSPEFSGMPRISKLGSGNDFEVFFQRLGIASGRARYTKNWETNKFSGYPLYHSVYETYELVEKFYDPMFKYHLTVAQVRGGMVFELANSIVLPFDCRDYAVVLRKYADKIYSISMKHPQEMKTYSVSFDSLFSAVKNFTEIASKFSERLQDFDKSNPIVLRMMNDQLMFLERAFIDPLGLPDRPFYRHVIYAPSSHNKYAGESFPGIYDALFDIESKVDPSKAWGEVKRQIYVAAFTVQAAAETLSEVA
Procedure: In vitro and in vivo experiments were performed using the PSMA-positive C4-2 cell line, a subline of the LNCaP (lymph node carcinoma of the prostate) cell line (CRL-3314; American Type Culture Collection). C4-2 cells were cultivated in RPMI 1640 (PAN Biotech) medium supplemented with 10% fetal calf serum and stable glutamine (PAN Biotech). Cells were grown at 37° C. and incubated with humidified air equilibrated with 5% CO2.
A MultiScreenHTS-DV filter plate was incubated at room temperature with 100 μl PBS containing 1% BSA per well for 30 min. After removal of the PBS/BSA solution 1×10^5 C4-2 cells were added Opti-MEM to each well. […] All non-labeled compounds were dissolved in Opti-MEM at a volume of 300 μl with the following concentrations: 0, 0.5, 1, 2.5, 5, 10, 25, 50, 100, 500, 1000 and 5000 nM. Subsequently, 3 μl of the radiolabeled compound was added. 50 μl of this mixture was taken to obtain a 0.75 nM concentration of the radiolabeled ligand. After 45 min incubation at 37° C., the cells were washed twice with PBS on a multiscreen vacuum manifold (Millipore, Billerica, MA) and the cell-bound radioactivity was measured with a gamma counter (Packard Cobra II, GMI, Minnesota, USA). The inhibitory potency was determined using ^68Ga-labeled PSMA-HBED-CC dimer (i.e. PSMA-11) as reference. The Ki was calculated using a nonlinear regression algorithm (Graph Pad Prism 5.01 software). The experiments were performed in quadruplicate.

C4-2 tumor = experiment: Planar scintigraphic imaging of 203Pb-labeled compounds; type: in vivo, BALB/c nu/nu mice; conditions: tail vein injection
Procedure: (§1) The in vivo experiments were carried out in accordance with the laws of the German Federal Republic. For PET imaging and biodistribution studies, male nude mice (Balb/c nu/nu mice) (19-23 g) were obtained from Charles River at 4-5 weeks of age and kept under specific-pathogen-free condition for 1 week prior to the study. The mice were housed with a 12-hour/12-hour light/dark cycle and had free access to water and food. The mice were anesthetized with 2% sevoflurane and inoculated subcutaneously on the right trunk with 5×10^7 C4-2 cells in 50% Matrigel in Opti-MEM I (1×) medium. Organ distribution studies were performed, when the size of the tumor was approximately 1 cm^3.
For small-animal imaging the mice were anesthetized with 2% sevoflurane. 0.1 nmol (1.0 MBq) of the ^203Pb-ligand was injected into the tail vein. Serial planar scans were performed using a Gamma Imager SCT (Biospace Lab, Paris, France) with a parallel collimator (35 mm/1.8 mm/0.2 mm) after 10 min, 1 h, 4 h, 24 h. and 72 h. Based on the imaging results, compound CA012 was chosen for biodistribution studies. Experiments were performed in triplicate.

[2] = Serum stability of 68Ga, 177Lu and 64Cu labeled compounds (iTLC, HPLC, pellet activity); type: in vitro ADME; conditions: 177Lu-labeled, human serum, 24 h
Procedure: After radiolabeling of the compounds the serum stability was determined by iTLC and HPLC analysis. 50 μL (20 MBq) of the labeled ligands was added to 200 μL of human serum (H4522; Sigma-Aldrich, Germany) and incubated at 37° C. for different time-points (0, 2 h, 24 h, 48 h and 72 h). 0.5×5 cm strips of iTLC-SG-glass microfiber chromatography paper (Folsom, California USA) were used. 0.5 μL of the radiolabeled compound in serum was applied to each strip at 1 cm from the bottom (origin) and the solvent (sodium citrate buffer (0.5 M, pH=5.0) in case of ^177Lu ligands, (1% Na-EDTA, pH=4) in case of Cu labeled ligands) front was allowed to rise to 5 cm from the bottom. Finally, each strip was cut in 8 pieces; each piece was measured in a gamma-counter. For HPLC analysis an equal volume of ACN was added to the samples to precipitate the serum proteins. Subsequently, the samples were centrifuged for 10 min at 13,000 rpm and the pellet and supernatant were separated and the relative activity was measured. The results are expressed as percent. In addition, an aliquot of the supernatant was analyzed by radio-HPLC (0-100% ACN in 5 min, Monolith column), with a flow rate of 2 mL/min.

[3] = In vivo fate and metabolization of 64Cu-chloride and 64Cu-CA003 (PET, radio-HPLC of tissue extracts); parameters: species or system Swiss mice; conditions: 10 min p.i., mouse without tumor
Procedure: The metabolization in vivo was studied by radio-HPLC analysis. Female Swiss mice (n=3) without tumor were injected via the tail vein with ^64Cu-chloride (10 MBq in approximately 100 μL of 0.9% saline) or ^64Cu-CA003 (9 MBq, 0.30 nmol in approximately 100 μL of 0.9% saline). PET imaging was performed 10 min post injection and subsequently blood, the liver and the kidneys were harvested. The tissues were rinsed with precooled saline, blotted dry and treated with 2 mL of 0.1 M NH4OAc/EtOH (35:65). The tissues were homogenized using an Ultra-Turrax T8 (IKA Labortechnik, Germany). The samples were centrifuged for 10 min at 13,000 rpm (4° C.). Subsequently, the pellet and supernatant were separated and the relative activity was measured. The results are expressed as percent. Additionally, an aliquot of supernatant was prepared for HPLC measurement by precipitation of the proteins with ACN as described above. The sample was analyzed by radio-HPLC (0-100% ACN in 5 min, Monolith column), with a flow rate of 2 mL/min. Fractions were collected every ten seconds over the whole course of the chromatography and the relative activity of the samples was measured in a gamma-counter to reconstruct a chromatogram.

C4-2 tumor xenograft = experiment: Small-animal PET in C4-2 tumor bearing mice; type: in vivo, BALB/c nu/nu mouse
Procedure: as §1
For small-animal PET imaging with various ^64Cu-labeled PSMA ligands, 0.2 nmol, 10 MBq of approximately 100 μL in 0.9% saline the radiolabeled compound were injected into a C4-2 tumor bearing mouse. The dynamic PET was recorded in a small animal PET scanner (Siemens Inveon D-PET, Malvern, PA USA). The SUV values were obtained from conventional (non-dynamic) PET images. The formula for the SUV was:
The volumes-of-interest (VOIs) were obtained by manual delineation of the appropriate whole tissue (heart, kidneys, bladder, tumor—with an approximate volume of 100-500 μl)—or parts of the tissue liver and muscle. […]

PSMA [4] = molecular target: T1, PSMA; parameters: PET/CT imaging in first patients was performed; from tissue; host or cells: tissues and tumour lesions of prostate cancer patients (in vivo PET/CT); conditions: values from Afshar-Oromieh et al., 2015, cited from earlier work
[5] = In vivo metabolite analysis of 177Lu-labeled ligands (radio-HPLC of tissue extracts); parameters: species or system BALB/c nude mouse; conditions: 1 h p.i., 10 MBq, 0.2 nmol
Procedure: FIG. 24. In vivo metabolite analysis of ^177Lu-CA028 in comparison with ^177Lu-PSMA-617 (10 MBq, 0.2 nmol in approximately 100 μl of 0.9% saline) in a BALB/c nude mouse (tumor) at 1 h p.i. […] This proves the integrity of the complex within the main distribution period.

SMILES: O=C(O)CCC(NC(=O)NC(CCCCNC(=O)C(Cc1ccc2ccccc2c1)NC(=O)C1CCC(CNC(=O)c2ccc(CN3CCCNCCNCCCNCC3)cc2)CC1)C(=O)O)C(=O)O (centres unmarked) [CA003]
- Ki / binding affinity to PSMA (in words) (PSMA [1]): particularly high affinity

SMILES: NC(=O)CN1CCN(CC(N)=O)CCN(CC(N)=O)C(Cc2ccc(NC(=S)NCC3CCC(C(=O)NC(Cc4ccc5ccccc5c4)C(=O)NCCCCC(NC(=O)NC(CCC(=O)O)C(=O)O)C(=O)O)CC3)cc2)CN(CC(N)=O)CC1 (centres unmarked) [CA009]
- tumor uptake / retention in planar scintigraphy (in words) (C4-2 tumor): high uptake of the tracer in the tumor tissue
- Ki / binding affinity to PSMA (in words) (PSMA [1]): highest affinity

SMILES: NC(=O)CN1CCN(CC(N)=O)CCN(CC(=O)NCC2CCC(C(=O)NC(Cc3ccc4ccccc4c3)C(=O)NCCCCC(NC(=O)NC(CCC(=O)O)C(=O)O)C(=O)O)CC2)CCN(CC(N)=O)CC1 (centres unmarked) [CA012]
- tumor uptake / retention in planar scintigraphy (in words) (C4-2 tumor): high uptake of the tracer in the tumor tissue
- Ki / binding affinity to PSMA (in words) (PSMA [1]): highest affinity

SMILES: O=C(O)CCC(NC(=O)NC(CCCCNC(=O)C(Cc1ccc2ccccc2c1)NC(=O)C1CCC(CNC(=S)Nc2ccc(CC3CN(CC(=O)O)CCN(CC(=O)O)CCN(CC(=O)O)CCN3CC(=O)O)cc2)CC1)C(=O)O)C(=O)O (centres unmarked) [CA029]
- free 177Lu [2]: no free activity

SMILES: O=C(O)CC[C@H](NC(=O)N[C@@H](CCCCNC(=O)[C@H](Cc1ccc2ccccc2c1)NC(=O)[C@H]1CC[C@H](CNC(=O)CN2CCN(CC(=O)O)CCN(CC(=O)O)CCN(CC(=O)O)CC2)CC1)C(=O)O)C(=O)O [PSMA-617]
- free 177Lu [2]: no free activity

SMILES: [64Cu+2].[Cl-].[Cl-] [^64Cu-chloride]
- blood circulation, maximum intensity projection PET [3]: 1.3
- kidney uptake, maximum intensity projection PET [3]: 3.4
- liver uptake, maximum intensity projection PET [3]: 2.7
- tumor-to-liver ratio (C4-2 tumor xenograft; 2 h): 0.38
- tracer accumulation in PET images (in words) (C4-2 tumor xenograft; C4-2 tumour bearing mice): very high liver accumulation

SMILES: O=C([O-])CN1CCN(CC(=O)[O-])CCN(CC(=O)NCC2CCC(C(=O)N[C@@H](Cc3ccc4ccccc4c3)C(=O)NCCCC[C@H](NC(=O)N[C@@H](CCC(=O)O)C(=O)O)C(=O)O)CC2)CCN(CC(=O)[O-])CC1.[68Ga+3] (some centres unmarked) [^68Ga-PSMA-617]
- SUVmean Blood pool, mediastinal (PSMA [4]; 1 h): 2.5
- SUVmean Bone met (PSMA [4]; 1 h): 9.4
- SUVmean Colon (PSMA [4]; 1 h): 3.5
- SUVmean Gluteal muscle (PSMA [4]; 1 h): 0.7
- SUVmean Kidneys (PSMA [4]; 1 h): 15.6
- SUVmean Lacrimal gland (PSMA [4]; 1 h): 4.9
- SUVmean Liver (PSMA [4]; 1 h): 3.3
- SUVmean Lymph node (PSMA [4]; 1 h): 7.1
- SUVmean Nasal mucosa (PSMA [4]; 1 h): 2.9
- SUVmean Parotid gland (PSMA [4]; 1 h): 10.4
- SUVmean Prox. Small intestine (PSMA [4]; 1 h): 4.7
- SUVmean Spleen (PSMA [4]; 1 h): 4.3
- SUVmean Sublingual gland (PSMA [4]; 1 h): 4.6
- SUVmean Submandibular gland (PSMA [4]; 1 h): 10
- SUVmean Blood pool, mediastinal (PSMA [4]; 3 h): 2.4
- SUVmean Bone met (PSMA [4]; 3 h): 6.3
- SUVmean Colon (PSMA [4]; 3 h): 4.0
- SUVmean Gluteal muscle (PSMA [4]; 3 h): 0.7
- SUVmean Kidneys (PSMA [4]; 3 h): 17.0
- SUVmean Lacrimal gland (PSMA [4]; 3 h): 5.9
- SUVmean Liver (PSMA [4]; 3 h): 2.7
- SUVmean Lymph node (PSMA [4]; 3 h): 13.5
- SUVmean Nasal mucosa (PSMA [4]; 3 h): 3.4
- SUVmean Parotid gland (PSMA [4]; 3 h): 13.1
- SUVmean Prox. Small intestine (PSMA [4]; 3 h): 5.5
- SUVmean Spleen (PSMA [4]; 3 h): 3.5
- SUVmean Sublingual gland (PSMA [4]; 3 h): 4.0
- SUVmean Submandibular gland (PSMA [4]; 3 h): 12.4

SMILES: O=C([O-])CN1CCN(CC(=O)[O-])CCN(CC(=O)NCC2CCC(C(=O)N[C@@H](Cc3ccc4ccccc4c3)C(=O)NCCCC[C@H](NC(=O)N[C@@H](CCC(=O)O)C(=O)O)C(=O)O)CC2)CCN(CC(=O)[O-])CC1.[177Lu+3] (some centres unmarked) [^177Lu-PSMA-617]
- integrity of tracer in extracts from kidney, blood, liver and tumor (radio-HPLC) [5]: activity elutes at the retention time of the intact tracer
